Measurements reported in article PMC5688144, “Assay interference and off-target liabilities of reported histone acetyltransferase inhibitors” (Nature Communications, 2017).
“Also recorded” adds a separate entry of the source. Like-named read-outs stand apart in the source and are kept apart here.

Tests used:
PCAF = molecular target: T1, PCAF (Homo sapiens, UniProt Q92831); conditions: cited from earlier work
T1 construct: Reaction Biology Corporation (assays run by this contract lab)

CBP = conditions: cited from earlier work; for IC50: original report, 22 (Supplementary References)
five tested HATs = test: HAT selectivity panel with DTT (Reaction Biology); assay type: biochemical; conditions: 10 μM compound; DTT in reaction buffer
Procedure: Selectivity profiles vs. HATs, HDACs, SIRTs, HMTs, proteases, kinases, and phosphatases were performed by Reaction Biology Corporation (Malvern, PA; Fig. 3 and Supplementary Fig. 3). Percent activity was normalized to DMSO-only controls. Reference control compounds were included in each assay.
Relevant reaction procedures for each target class are briefly summarized (see reactionbiology.com for additional details). HATs: reaction buffer 50 mM Tris–HCl, pH 8.0, 50 mM NaCl, 0.1 mM EDTA, ± 1 mM DTT, 1 mM PMSF, 1% DMSO; substrate [^3H]-acetyl-CoA; reaction time 1 h; end-point measurement. HDACs: reaction buffer 50 mM Tris–HCl, pH 8.0, 137 mM NaCl, 2.7 mM KCl, 1 mM MgCl2, 1 mg mL^−1 BSA, 1% DMSO; fluorogenic substrate p53 residues 379–382 (RHKK(Ac)-AMC) (HDAC1/2/3/6/10), fluorogenic substrate p53 residues 379–382 (RHK(Ac)K(Ac)AMC) (HDAC8); fluorogenic substrate trifluoroacetyl lysine (HDAC4/5/7/9/11); pre-incubation included; reaction time 1–2 h; trichostatin A or TMP269 quencher; fluorescent readout λexcite = 360 nm, λemission = 460 nm; end-point measurement. SIRTs: reaction buffer 50 mM Tris–HCl, pH 8.0, 137 mM NaCl, 2.7 mM KCl, 1 mM MgCl2, 1 mg mL^−1 BSA, 1% DMSO; fluorogenic substrate p53 residues 379–382 (RHKK(Ac)-AMC) (SIRT1/2/3); fluorogenic substrate Ac-Lys(Succ)-AMC (SIRT5); substrate: 500 µM NAD^+; reaction time 2 h; nicotinamide quencher; fluorescent readout λexcite = 360 nm, λemission = 460 nm; end-point measurement (1.5 h development). HMTs: reaction buffer 50 mM Tris–HCl, pH 8.0, 0.01% Brij35, 1 mM EDTA, 1 mM DTT, 1 mM PMSF, 1% DMSO (EZH2); reaction buffer 50 mM Tris–HCl, pH 7.5, 5 mM EDTA, 0.01% Brij35, 5 mM DTT, 0.1 mM PMSF, 5% glycerol, 1% DMSO; 50 mM Tris–HCl, pH 8.5, 5 mM MgCl2, 50 mM NaCl, 0.01 Brij35, 1 mM DTT, 1% DMSO (G9a); methyl donor 1 μM S-Adenosyl-L-[methyl-^3H]-methionine; substrate 5 μM histone proteins or 0.05 mg mL^−1 nucleosomes; pre-incubation time 10–15 min; reaction time 0.5–1 h; end-point measurement. Caspases: reaction buffer 50 mM HEPES, pH 7.4, 1 M citrate, 100 mM NaCl, 0.01% CHAPS, 0.1 mM EDTA, 10 mM DTT; fluorogenic peptide substrate; pre-incubation time 10 min; reaction time 2 h; time-course measurement. Kinases: reaction buffer 20 mM HEPES, pH 7.5, 10 mM MgCl2, 1 mM EGTA, 0.02% Brij35, 0.02 mg mL^−1 BSA, 0.1 mM Na3VO4, 2 mM DTT, 1% DMSO; substrate [^33P]-ATP; reaction time 2 h; end-point measurement.

[1] = test system: H3K27ac levels in HEK293T and MCF7 cells; test: Cellular H3K27ac western blot; assay type: cell-based; conditions: 10 and 30 μM compound
Procedure: Cells were cultured in DMEM supplemented with 10% fetal bovine serum (Winsent), penicillin (100 U mL^−1), and streptomycin (100 µg mL^−1). Compounds dissolved in DMSO or matching DMSO-only controls were added to cells for indicated times. Compound effects in cells were determined as described[67] and are outlined below.
For western blot analyses, cells were lysed in lysis buffer (20 mM Tris–HCl, pH 8, 150 mM NaCl, 1 mM EDTA, 10 mM MgCl2, 0.5% Triton X-100 (v/v), 12.5 U mL^−1 benzonase (Sigma), complete EDTA-free protease inhibitor cocktail (Roche)). After 3 min incubation at RT, SDS was added to final 1% concentration (w/v). Total cell lysates were resolved in 4–12% Bis-Tris protein gels (Invitrogen) with MOPS buffer (Invitrogen) and transferred for 1.5 h (80 V) onto PVDF membrane (Millipore) in tris-glycine transfer buffer containing 20% methanol and 0.05% SDS. Blots were blocked for 1 h in blocking buffer (5% milk in 0.1% Tween 20/PBS) and incubated with respective primary antibodies: H3K27ac (1:1000, CST #8173), H3 (1:1000, Abcam #10799), p300 (1:2000, Bethyl #A300-358A), CBP (1:1000, Bethyl #A300-362A), actin (1:3000, Abcam #3280), α-tubulin (1:1000, 12G10 DHSB), and α-tubulin-K40ac (1:2000, Abcam #179484) in blocking buffer overnight at 4 °C. After five washes with 0.1% Tween 20/PBS, the blots were incubated with goat anti-rabbit IgG (IRDye 800-conjugated, LiCor #926-32211) and donkey anti-mouse IgG (IRDye 680-conjugated, LiCor #926-68072) antibodies (1:5000) in Odyssey Blocking Buffer (LiCor) for 1 h at RT and washed with 0.1% Tween 20/PBS. The signal was read on an Odyssey scanner (LiCor) at 800 and 700 nm. Representative uncropped images with molecular weight markers are provided (Supplementary Figs. 9, 12, 13).

HEK293T and MCF7 cells = test: Membrane permeability (SYTOX green uptake); assay type: cell-based; conditions: for membrane permeability: Sytox green dead-cell dye uptake
Procedure: For cell growth analyses, cells were seeded in 96-well plates, treated with compounds for the indicated times, and monitored over time in a live cell Incucyte™ ZOOM imager (Essen Biosciences). To label apoptotic and dead cells, caspase 3/7 activatable DEVD recognition motif NucView™ 488 DNA intercalating dye (1:1000 dilution, Essen Biosciences) and SYTOX™ green nucleic acid stain (1:1000 dilution, Invitrogen) were used respectively, following manufacturer instructions.

MYST2 = conditions: cited from earlier work
[2] = original report, 27 (Supplementary References)

T1 sequence (Q92831 whole entry, species assumed): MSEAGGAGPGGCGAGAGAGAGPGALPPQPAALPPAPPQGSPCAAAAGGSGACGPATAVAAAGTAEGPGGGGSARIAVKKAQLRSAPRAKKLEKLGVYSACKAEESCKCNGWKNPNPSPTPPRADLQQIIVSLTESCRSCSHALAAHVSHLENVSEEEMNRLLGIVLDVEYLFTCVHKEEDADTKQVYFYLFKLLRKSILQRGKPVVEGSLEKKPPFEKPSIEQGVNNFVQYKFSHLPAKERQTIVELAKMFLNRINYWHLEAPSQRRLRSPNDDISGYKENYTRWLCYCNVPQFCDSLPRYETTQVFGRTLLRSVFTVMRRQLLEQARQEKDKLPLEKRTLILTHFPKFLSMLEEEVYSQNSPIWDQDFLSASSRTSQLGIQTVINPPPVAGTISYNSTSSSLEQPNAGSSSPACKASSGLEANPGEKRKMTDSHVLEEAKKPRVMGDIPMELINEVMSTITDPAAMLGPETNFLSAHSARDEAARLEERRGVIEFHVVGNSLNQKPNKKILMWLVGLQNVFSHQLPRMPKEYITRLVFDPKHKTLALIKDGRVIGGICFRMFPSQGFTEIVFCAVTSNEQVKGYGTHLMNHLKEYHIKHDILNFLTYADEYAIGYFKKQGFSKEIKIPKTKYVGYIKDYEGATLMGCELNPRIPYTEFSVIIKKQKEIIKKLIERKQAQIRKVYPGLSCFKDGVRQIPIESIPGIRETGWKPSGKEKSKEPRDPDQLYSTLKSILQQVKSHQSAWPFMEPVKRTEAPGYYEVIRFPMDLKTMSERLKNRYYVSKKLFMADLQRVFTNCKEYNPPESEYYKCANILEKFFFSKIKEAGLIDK

Compound: Cc1cc2c(C(C)C)c(O)c(O)c(C=O)c2c(O)c1-c1c(C)cc2c(C(C)C)c(O)c(O)c(C=O)c2c1O [Compound 16, Gossypol]
- IC50 (PCAF; [2]): ~50 µM
- IC50 (CBP): ~25 µM

Compound: CC1=NN(c2ccc(C(=O)O)cc2)C(=O)/C1=C/c1ccc(-c2cc(C)c(C)cc2[N+](=O)[O-])o1 [Compound 1, C646]
- activity vs. the five tested HATs (five tested HATs): potent inhibition of at least one HAT
- % inhibition, PCAF (PCAF; @ 10 µM, ref 5 (Supplementary References)): < 10%
- cellular H3K27ac levels [1]: decreased

Compound: Cc1cc(O)cc(C)c1C=C1C(=O)N(Cc2ccccc2)C(=O)N(Cc2ccccc2)C1=O [Compound 4, EML425]
- activity vs. the five tested HATs (five tested HATs): potent inhibition of at least one HAT
- cellular H3K27ac levels [1]: did not perturb
- IC50 (CBP): 1.1 µM

Compound: Plumbagin [Compound 8]
- cytotoxicity by membrane integrity studies (HEK293T and MCF7 cells; 30 µM compound, MCF7 cells): cytotoxic
- membrane permeability (HEK293T and MCF7 cells): increase; also recorded: dose-dependent increases
- % inhibition, PCAF (PCAF; @ 50 µM, 23 (Supplementary References)): ~ 50%

Compound: COc1ccc(/C(Cl)=C(/C=O)c2ccc(OC)cc2)cc1 [Compound 18, Windorphen]
- activity vs. the five tested HATs (five tested HATs): minimal activity
- IC50 (PCAF; [2]): > 100 µM
- IC50 (MYST2; original report, ref 22 (Supplementary References)): > 100 µM
- IC50 (CBP): 51.3 µM

Compound: CCCCCCCc1ccc(CCc2cccc(O)c2C(=O)O)cc1 [Compound 15, MG 149]
- % inhibition, PCAF (PCAF; @ 200 µM, ref 19 (Supplementary References)): 3%

Compound: COc1ccc(S(=O)(=O)ON=C2C=C(C)C(=O)C(C)=C2)cc1 [Compound 5, L002]
- cellular H3K27ac levels [1]: decreased
- % inhibition, MYST2 (MYST2; @ 100 µM, HotSpot, ref 9 (Supplementary References)): 1%
- % inhibition, CBP (CBP; @ 100 µM, ref 9 (Supplementary References)): 32%

Compound: O=c1c2cccnc2sn1Cc1ccc(C(F)(F)F)cc1 [Compound 3, PU141]
- activity vs. the five tested HATs (five tested HATs): minimal activity
- IC50 (PCAF; H4 peptide substrate, ref 7 (Supplementary References)): 35.5 µM

Compound: C=C1C(=O)O[C@H](CCC)[C@H]1C(=O)O [Compound 6, MB-3]
- IC50 (CBP): 500 µM

Compound: Garcinol [Compound 13]
- activity vs. the five tested HATs (five tested HATs): potent inhibition of at least one HAT

Compound: CCCCCCCCCCCCCCCc1cccc(O)c1C(=O)O [Compound 14, Anacardic acid]
- cellular H3K27ac levels [1]: did not perturb

Compound: O=C1/C(=C/c2ccc(O)c(Br)c2)CCC/C1=C\c1ccc(O)c(Br)c1 [Compound 12, HAT inhibitor II]
- activity vs. the five tested HATs (five tested HATs): potent inhibition of at least one HAT
- membrane permeability (HEK293T and MCF7 cells): increase; also recorded: dose-dependent increases
- % inhibition, PCAF (PCAF; @ 5 µM, ref 16 (Supplementary References)): < 1%

Compound: O=C(O[C@@H]1Cc2c(O)cc(O)cc2O[C@@H]1c1cc(O)c(O)c(O)c1)c1cc(O)c(O)c(O)c1 [Compound 10, (-)-Epigallocatechin gallate]
- IC50 (CBP): 50 µM

Compound: COc1cc(/C=C/C(=O)CC(=O)/C=C/c2ccc(O)c(OC)c2)ccc1O [Compound 11, Curcumin]
- % inhibition, PCAF (PCAF; @ 100 µM, ref 15 (Supplementary References)): < 10%
